Publication PMC6356585 (Viruses, 2018)

Tests used:
ZIKV [1] = tested on: ZIKV; design: method as in ref 43 = [43]; settings: by inhibiting viral entry; cited from earlier work
ZIKV [2] = tested on: ZIKV; design: method as in ref 43 = [43]; settings: by inhibiting viral entry; cited from earlier work; remark: listed apart in the source
human rhinovirus = tested on: human rhinovirus; design: method as in ref 39 = [39]; settings: cited from earlier work
ZIKV SPH [3] = test: 7-Ketocholesterol and ZIKV pre-incubation (virucidal effect); assay type: cell-based, Zika virus; settings: 200 µM 7-KC, 1 h, room temperature, then diluted to approx. 0.2 µM on Vero cells, MOI 0.1, 40 hpi
C6/36 cells = assay type: cell-based, Ae. albopictus; settings: 10 µM compound, 96 h, CellTiter-Glo; ± SEM, three independent trials
human rotavirus = tested on: human rotavirus; design: method as in ref 39 = [39]; settings: cited from earlier work
ZIKV SPH [4] = test: qRT-PCR of ZIKV genomes in cells and supernatants; assay type: cell-based, Zika virus
ZIKV SPH [5] = test: Autophagy compound library screen, ZIKV SPH titer (TCID50) in C6/36 cells; assay type: cell-based, Zika virus; settings: Zika virus, C6/36; 10 µM compound, MOI 0.1, 96 h, TCID50; ± SEM, three independent trials; read-out: ZIKV SPH Relative Titer in C6/36 Cells
ZIKV SPH [6] = test: ZIKV SPH titer in compound-treated human neurons; assay type: cell-based, Zika virus; settings: 10 µM, ZIKV SPH MOI 1.0, 4 days, TCID50
ZIKV IbH = test: Autophagy compound screen in Vero cells infected with ZIKV IbH; assay type: cell-based, Zika virus; settings: African-lineage ZIKV IbH, 10 µM
[7] = tested on: autophagic vesicles in Vero cells; test: Autophagy detection (CYTO-ID) in Vero cells; assay type: cell-based; settings: 10 µM compound, 24 h, CYTO-ID green MFI vs DMSO control
ZIKV SPH [8] = test: 7-Ketocholesterol dose-response, ZIKV SPH titer in Vero cells; assay type: cell-based; settings: Zika virus, MOI 1, 24 h, 0–27 µM, TCID50, R^2 = 0.9078
ZIKV SPH [9] = test: Time-of-addition assay in Vero cells; assay type: cell-based, Zika virus; settings: for ZIKV titer, time-of-addition / Decrease of ZIKV titers, time-of-addition: Vero
human papillomavirus = tested on: human papillomavirus; design: method as in ref 39 = [39]; settings: cited from earlier work

In the case of `C[C@H](CCCC(C)(C)O)[C@H]1CC[C@H]2[C@@H]3CC=C4C[C@@H](O)CC[C@]4(C)[C@H]3CC[C@]12C` [25-hydroxycholesterol], the “ZIKV titers in vitro” value (ZIKV [1]) is given as “reduced ZIKV titers” and the “ZIKV titers in vivo” value (ZIKV [2]) is given as “reduced ZIKV titers”.

For `CC(C)CCC[C@@H](C)[C@H]1CC[C@H]2[C@@H]3C(=O)C=C4C[C@@H](O)CC[C@]4(C)[C@H]3CC[C@]12C` [7-Ketocholesterol], the “Activity against human rhinovirus” value (human rhinovirus) is listed as “minor activity”, the “ZIKV titer after preincubation of virus stock with compound (virucidal effect)” value (ZIKV SPH [3]) is listed as “did not reduce viral titers” and the “C6/36 Viability” value (C6/36 cells) is listed as 36 ± 5.1% of untreated control. The “Activity against human rotavirus” value (human rotavirus) was “no activity”, the “Budding/release efficiency (genomes in supernatant vs cell associated genomes)” value (ZIKV SPH [4]; Vero cells, 10 µM 7-KC, 24 hpi) was “approximately 30 % of untreated cells” and the “Number of viral genome copies in the supernatant” value (ZIKV SPH [4]; Vero cells, 10 µM 7-KC, 24 hpi) was “reduced”. The “Levels of ZIKV RNA in infected cells” value (ZIKV SPH [4]; Vero cells, 10 µM 7-KC, total cellular RNA at 24 hpi) was “not significantly altered”, the “Specific infectivity: 1 in N genomes infectious” value (ZIKV SPH [4]; infectious titer vs genome copies in supernatant, Vero, 7-KC present, control 1 in 1200) was roughly 9000 genomes and the activity at 10 µM (ZIKV SPH [5]) was 9.8 ± 3.3%. The “ZIKV titer in human neurons” value (ZIKV SPH [6]) was “reduced ZIKV titer”, the “Reduction of ZIKV IbH” value (ZIKV IbH) was “more than 90 % of control” and the “ZIKV IbH titer in Vero cells compared to control” value (ZIKV IbH) was “reduced ZIKV IbH titers”. The “ZIKV IbH titer in Vero cells compared to control” value (ZIKV IbH; listed as 7-KC) was “dropped titers more than a log”, the “Autophagy Activity Factor (AAF)” value [7] was 27.01 and the IC50 (ZIKV SPH [8]) was 4.06 µM. For the same molecule, the “ZIKV titer, time-of-addition” value (ZIKV SPH [9]; 10 µM 7-KC added 12 h after infection, 24 hpi) was “ZIKV inhibition continued”, the “ZIKV titer, time-of-addition” value (ZIKV SPH [9]; 10 µM 7-KC added 18 h after infection, 24 hpi) was “slight decrease in titer” and the “Decrease of ZIKV titers, time-of-addition” value (shortened to “Decrease of ZIKV titers”) (ZIKV SPH [9]; 10 µM 7-KC added at 2 hpi, MOI 0.1, 24 hpi) was 90%. For the same molecule, the “Decrease of ZIKV titers” value (ZIKV SPH [9]; 10 µM 7-KC added at 6 hpi, MOI 0.1, 24 hpi) was 90%, the “Decrease of ZIKV titers” value (ZIKV SPH [9]; 10 µM 7-KC added at the time of infection, MOI 0.1, 24 hpi) was 90% and the “ZIKV titer, time-of-addition” value (ZIKV SPH [9]; 10 µM 7-KC, pre-treating cells 2 h before infection, MOI 0.1, 24 hpi) was “did not reduce viral titers”. For the same molecule, the “Decrease in infectious virions” value (ZIKV SPH [9]; Vero cells, 10 µM 7-KC, 24 hpi) was “greater than 90%” and the “Activity against human papillomavirus” value (human papillomavirus) was “no activity”.
